Experimental data published in US20170119020A1, “METHOD OF FEEDING AN ANIMAL” (CARGILL, INCORPORATED, priority 2014, published 2017).
Marks after values point to notes of the source that are not given here.

Tests used:
Ross 308 male broilers = test: Grow out of offspring (Example 6); assay type: in vivo, chicken; settings: 160 versus 80 ppm in breeder diet
[1] = system: sows (PIC) and their piglets; test: Litter performance (Example 10); assay type: in vivo, pig; settings: for Mortality: piglets until weaning
Experimental: Testing was performed on sows (primiparous and multiparous) of the same type of crossing (PIC). The trial comprised 52 sows in a system of continuous farrowing. Each group was consist of 13 animals. The trial ran from day 1 of pregnancy to remating in the next cycle.
Each group was fed with complete diets for pregnant sows (0-90 d) and for lactation sows (90 d of gestation-weaning) with different inclusion of vitamin E and tested product (see TABLE 43A) and lactation diets (see TABLE 43B)
(§1) The performance following criteria were monitored during the trial: (i) Sows response criteria (actual parity, farrowing rate, culled sows—number and reasons, wean-to-mating interval, farrowing rate in the next cycle); (ii) litter response criteria (number of piglets, total, alive, stillborn, mummies; weight of piglets and litters; survival). The following biochemical (blood) criteria were monitored during the trial for the sows (mating, farrowing and weaning), piglets 21st day: (i) glutathione peroxidase (GPx) activity; (ii) superoxide dismutase (SOD) activity; (iii) total antioxidant status (TAS); (iv) vitamin E content; (v) vitamin A content.

sows and piglets [2] = test: Total antioxidant status (TAS) in serum of sows and piglets (Example 10); assay type: in vivo, pig; settings: for Total antioxidant status (TAS) in serum of piglets: piglets at 21 days
Description: as §1
(§2) To determine the oxidative status, the blood samples were collected from sows and piglets into tubes with lithium anticoagulant—received whole blood for analysis. At the same time blood samples were taken for blood clot. They were centrifuged (1500 rpm, 15 Temp. 4° C.) and obtained serum was pipetted into separate tubes.
(§3) In studies of oxidative status of sows and piglets were used suitable to each of the indicators, the reagent kits from Sigma-Aldrich. Determination was made in accordance with the descriptions of the rules and procedures specified by the manufacturer.
(§4) The content of the TAS (total antioxidant status) were determined using the Antioxidant assay kit (Cat. No CS0790), the activity of SOD (superoxide dismutase) was determined using SOD determination kit 19160, the activity of GPx (glutathione Peroxide assai Cellular Activity Kit) Cat. No CGP1. The content of vitamins A and E by McMurray and Blanchflower 1979 (Journal of Chromatography 178, 525-531.). TAS
Serum samples (10 ul) in duplicate were incubated at room temperature for 5 minutes with the working solution of ABTS (2,2-azino-bis (3-ethylbenzthiazoline-6-sulfonic acid) (150 pl) and the solution with myoglobin (20 pl). Simultaneously the calibration curve was performed based on serial dilutions of Trolox equivalent in the range of 0.015 to 0.42 mM (mmol).
The formed a ferryl radical from myoglobin and hydrogen peroxide causes oxidation of ABTS and production of radical cation ABTS*. The resulting chromogen has a blue-green color. In the presence of antioxidants the radical cation is suppressed to an extent dependent on the activity of the antioxidant and the color intensity is decreased proportionally. The color was measured with a spectrophotometer at a wavelength of 405 nm.

sows and piglets [3] = test: Superoxide dismutase (SOD) activity in serum of sows and piglets (Example 10); assay type: in vivo, pig; settings: for Activity of superoxide dismutase (SOD) in serum of piglets: piglets at 21 days
Description: as §1, §2, §3, §4
Serum samples (20 ul) in duplicate were incubated at 37° C. for 20 minutes with the working solution WST (tetrazolium sodium salt, 2-(4-lodophenyl)-3 (4-nitrophenyl0-5-(2,4-disulfophenyl) 2H-tetrazolium, monosodium salt) (200 pl) and the enzyme working solution (20 pl). Simultaneously sample blanks were performed (two reagents, and blank for each sample) and a calibration curve based on serial dilutions of SOD in a range of 200 to 0,001 U/ml. Absorbance of the blank, standards and test samples read on a spectrophotometer at a wavelength of 450 nm. WST produces a water-soluble formazan dye upon reduction with a superoxide anion. The rate of the reduction with O2 are linearly related to the xanthine oxidase (XO) activity. The SOD activity is measured as the degree of blocking the formation of the formazan dye.

[4] = 1st day, Group 2: vitamin E 50/75 mg/kg sow diet
[5] = 1st day, Group 3: vitamin E 100/150 mg/kg sow diet
[6] = Weaning, Group 2: vitamin E 50/75 mg/kg sow diet
[7] = Weaning, Group 3: vitamin E 100/150 mg/kg sow diet
[8] = Group 2: vitamin E 50/75 mg/kg sow diet
[9] = Group 3: vitamin E 100/150 mg/kg sow diet
[10] = Breeding, Group 2: vitamin E 50/75 mg/kg diet
[11] = Breeding, Group 3: vitamin E 100/150 mg/kg diet
[12] = Farrowing, Group 2: vitamin E 50/75 mg/kg diet
[13] = Farrowing, Group 3: vitamin E 100/150 mg/kg diet
[14] = Weaning, Group 2: vitamin E 50/75 mg/kg diet
[15] = Weaning, Group 3: vitamin E 100/150 mg/kg diet

In the case of Cc1c(C)c2c(c(C)c1O)CCC(C)(CCCC(C)CCCC(C)CCCC(C)C)O2 (racemic) [Vitamin E, DL-α-tocopherol], the “feed to gain corrected for final bodyweight, worse for high versus low vitamin E treatment” value (Ross 308 male broilers) is reported as 2.6%, the “overall feed to gain, worse for high versus low vitamin E treatment” value (Ross 308 male broilers) is reported as 1.4% and the Litter weight [1, 4] is reported as 18.50^a kg. The “Number of piglets per litter, Born alive” value [1, 4] was 12.82, the “Number of piglets per litter, Mummies” value [1, 4] was 0.18 and the “Number of piglets per litter, Stillborn” value [1, 4] was 1.36. For the same compound, the “Number of piglets per litter, Weak” value [1, 4] was 0.36, the Piglet weight [1, 4] was 1.44 kg and the Litter weight [1, 5] was 19.07^a kg. The “Number of piglets per litter, Born alive” value [1, 5] was 13.18, the “Number of piglets per litter, Mummies” value [1, 5] was 0.20 and the “Number of piglets per litter, Stillborn” value [1, 5] was 1.09. For the same compound, the “Number of piglets per litter, Weak” value [1, 5] was 0.40, the Piglet weight [1, 5] was 1.45 kg and the Litter weight [1, 6] was 83.96^b kg. For the same compound, the Piglet weight [1, 6] was 7.16 kg, the “Weaning Number of piglets per litter” value [1, 6] was 11.73 and the Litter weight [1, 7] was 84.33^b kg. For the same compound, the Piglet weight [1, 7] was 7.31 kg, the “Weaning Number of piglets per litter” value [1, 7] was 11.82 and the Mortality [1, 8] was 8.37%. For the same compound, the Mortality [1, 9] was 10.64%, the “Total antioxidant status (TAS) in serum of sows” value (sows and piglets [2]; [10]) was 1.26 mmol/L and the “Total antioxidant status (TAS) in serum of sows” value (sows and piglets [2]; [11]) was 1.29 mmol/L. For the same compound, the “Total antioxidant status (TAS) in serum of sows” value (sows and piglets [2]; [12]) was 1.18^a mmol/L, the “Total antioxidant status (TAS) in serum of sows” value (sows and piglets [2]; [13]) was 1.19^a mmol/L and the “Total antioxidant status (TAS) in serum of sows” value (sows and piglets [2]; [14]) was 1.18^B mmol/L. The “Total antioxidant status (TAS) in serum of sows” value (sows and piglets [2]; [15]) was 1.20^Ba mmol/L, the “Total antioxidant status (TAS) in serum of piglets” value (sows and piglets [2]; [8]) was 1.16^B mmol/L and the “Total antioxidant status (TAS) in serum of piglets” value (sows and piglets [2]; [9]) was 1.18^A mmol/L. The “Activity of superoxide dismutase (SOD) in serum of sows” value (shortened to “Activity … of sows”) (sows and piglets [3]; [10]) was 71.43 U/ml, the “Activity … of sows” value (sows and piglets [3]; [11]) was 73.28 U/ml and the “Activity … of sows” value (sows and piglets [3]; [12]) was 77.14^B U/ml. The “Activity … of sows” value (sows and piglets [3]; [13]) was 79.60^AB U/ml, the “Activity … of sows” value (sows and piglets [3]; [14]) was 79.50^C U/ml and the “Activity … of sows” value (sows and piglets [3]; [15]) was 90.93^B U/ml. For the same compound, the “Activity of superoxide dismutase (SOD) in serum of piglets” value (sows and piglets [3]; [8]) was 100.61^B U/ml and the “Activity of superoxide dismutase (SOD) in serum of piglets” value (sows and piglets [3]; [9]) was 129.54^Ab U/ml.
